Measurements published in DBAASP.
Converted amounts (≈) assume the structure as drawn. Values belong to the compound of their own block, whether it stands above or below them.

Tests used:
Assay in all cases: ≥ marks a high value that may be exact or a test limit, other limits are often not marked, values filed in µg/mL are converted to µM
Bacillus subtilis = system: Bacillus subtilis
Escherichia coli ML-35p = system: Escherichia coli ML-35p
[1] = system: Staphylococcus aureus ATCC 2592
[2] = system: Candida albicans ATCC 2002
[3] = system: Staphylococcus aureus ATCC 43300
[4] = system: Pseudomonas aeruginosa ATCC 27853
[5] = system: Pseudomonas aeruginosa PAO1
[6] = system: Candida albicans NCPF 1467
[7] = system: Staphylococcus aureus NCTC 10788
[8] = system: Escherichia coli NCTC 10418
[9] = system: Staphylococcus aureus ATCC 25923
Escherichia coli B = system: Escherichia coli B
Staphylococcus aureus = system: Staphylococcus aureus
Pseudomonas aeruginosa = system: Pseudomonas aeruginosa
Bacillus subtilis 168 = system: Bacillus subtilis 168
[10] = system: Escherichia coli ATCC 25922
[11] = system: Staphylococcus aureus ATCC 9144
[12] = system: Corynebacterium glutamicum ATCC 13032
Streptococcus mutans = system: Streptococcus mutans
Escherichia coli BW25113 = system: Escherichia coli BW25113

MIC [6]: 1.83 µM (≈ 4 µg/mL)
MIC [7]: 1.83 µM (≈ 4 µg/mL)
MIC [8]: 7.33 µM (≈ 16 µg/mL)
SMILES: CC[C@H](C)[C@H](NC(=O)[C@H](C)NC(=O)[C@H](CCCCN)NC(=O)[C@@H]1CCCN1C(=O)[C@@H](NC(=O)[C@H](CC(C)C)NC(=O)[C@H](CCCCN)NC(=O)[C@H](Cc1ccccc1)NC(=O)[C@H](CC(C)C)NC(=O)[C@@H](N)Cc1ccccc1)[C@@H](C)CC)C(=O)N[C@@H](CCCCN)C(=O)NCC(=O)N[C@@H](CC(C)C)C(=O)N[C@H](C(=O)N[C@@H](CCCCN)C(=O)N[C@@H](C)C(=O)N[C@H](C(=O)N[C@@H](CCCN=C(N)N)C(=O)N[C@@H](CCCCN)C(N)=O)[C@@H](C)CC)C(C)C [FLFKLIPKAIKGLVKAIRK]

MIC (Escherichia coli B): 9.1 µM (≈ 10.2 µg/mL)
MIC (Staphylococcus aureus): 10.9 µM (≈ 12.2 µg/mL)
MIC (Pseudomonas aeruginosa): 59 µM (≈ 65.9 µg/mL)
MIC (Bacillus subtilis 168): 2.9 µM (≈ 3.24 µg/mL)
SMILES: CC[C@H](C)[C@H](NC(=O)[C@H](CO)NC(=O)[C@H](CC(C)C)NC(=O)[C@H](Cc1ccccc1)NC(=O)CN)C(=O)N[C@@H](CC(C)C)C(=O)N[C@@H](CCCCN)C(=O)N[C@@H](CCCCN)C(=O)N[C@H](C(=O)N[C@@H](CC(C)C)C(N)=O)C(C)C [GFLSILKKVL]

MIC (Escherichia coli BW25113): ≥ 32 µM
SMILES: CC[C@H](C)[C@H](NC(=O)[C@@H]1CCCN1C(=O)[C@@H]1CCCN1C(=O)[C@H](CCCN=C(N)N)NC(=O)[C@H](Cc1ccccc1)NC(=O)[C@@H](N)CCCN=C(N)N)C(=O)N[C@@H](CCCN=C(N)N)C(=O)N[C@@H](CCCN=C(N)N)C(=O)N1CCC[C@H]1C(=O)N1CCC[C@H]1C(=O)N[C@H](C(=O)N[C@@H](CCCN=C(N)N)C(=O)N1CCC[C@H]1C(=O)N1CCC[C@H]1C(=O)N[C@@H](Cc1c[nH]c2ccccc12)C(=O)N[C@@H](Cc1ccc(O)cc1)C(=O)N1CCC[C@H]1C(=O)O)[C@@H](C)CC [RFRPPIRRPPIRPPWYP]

MIC (Escherichia coli BW25113): 8 µM (≈ 18 µg/mL)
SMILES: CC[C@H](C)[C@H](NC(=O)[C@@H]1CCCN1C(=O)[C@H](Cc1c[nH]c2ccccc12)NC(=O)[C@H](CCCN=C(N)N)NC(=O)[C@H](Cc1ccccc1)NC(=O)[C@@H](N)CCCN=C(N)N)C(=O)N[C@@H](CCCN=C(N)N)C(=O)N[C@@H](CCCN=C(N)N)C(=O)N1CCC[C@H]1C(=O)N1CCC[C@H]1C(=O)N[C@H](C(=O)N[C@@H](CCCN=C(N)N)C(=O)N1CCC[C@H]1C(=O)N1CCC[C@H]1C(=O)N[C@@H](Cc1ccccc1)C(=O)N[C@@H](Cc1ccc(O)cc1)C(=O)N1CCC[C@H]1C(=O)O)[C@@H](C)CC [RFRWPIRRPPIRPPFYP]

MIC (Escherichia coli BW25113): 16 µM (≈ 37.6 µg/mL)
SMILES: CC[C@H](C)[C@H](NC(=O)[C@@H]1CCCN1C(=O)[C@H](CCCN=C(N)N)NC(=O)[C@H](CCCN=C(N)N)NC(=O)[C@H](CCCN=C(N)N)NC(=O)[C@@H](N)CCCN=C(N)N)C(=O)N[C@@H](CCCN=C(N)N)C(=O)N[C@@H](CCCN=C(N)N)C(=O)N[C@@H](CCCN=C(N)N)C(=O)N1CCC[C@H]1C(=O)N[C@H](C(=O)N[C@@H](CCCN=C(N)N)C(=O)N1CCC[C@H]1C(=O)N1CCC[C@H]1C(=O)N[C@@H](Cc1ccccc1)C(=O)N[C@@H](Cc1ccc(O)cc1)C(=O)N[C@@H](CCCN=C(N)N)C(=O)O)[C@@H](C)CC [RRRRPIRRRPIRPPFYR]

MIC (Streptococcus mutans): 6.3 µM (≈ 16 µg/mL)
SMILES: NC(=O)[C@H](Cc1ccccc1)NC(=O)[C@H](Cc1c[nH]c2ccccc12)NC(=O)[C@H](Cc1c[nH]c2ccccc12)NC(=O)[C@H](Cc1c[nH]c2ccccc12)NC(=O)[C@H](CCCN=C(N)N)NC(=O)[C@H](CCCN=C(N)N)NC(=O)[C@H](CCCN=C(N)N)NC(=O)CNC(=O)CNC(=O)CNC(=O)[C@H](Cc1ccccc1)NC(=O)[C@H](Cc1c[nH]c2ccccc12)NC(=O)[C@H](Cc1c[nH]c2ccccc12)NC(=O)[C@H](Cc1c[nH]c2ccccc12)NC(=O)[C@H](CCCN=C(N)N)NC(=O)[C@H](CCCN=C(N)N)NC(=O)[C@@H](N)CCCN=C(N)N [RRRWWWFGGGRRRWWWF]

MIC (Bacillus subtilis): 8.6 µM (≈ 21.9 µg/mL)
MIC (Escherichia coli ML-35p): 14.7 µM (≈ 37.5 µg/mL)
MIC [2]: 12.9 µM (≈ 32.7 µg/mL)
MIC [9]: 3.69 µM (≈ 9.38 µg/mL)
SMILES: CC[C@H](C)[C@H](NC(=O)[C@H](CCCCN)NC(=O)[C@H](CC(=O)O)NC(=O)[C@H](CC(C)C)NC(=O)[C@@H](NC(=O)[C@H](CC(N)=O)NC(=O)[C@H](CCC(N)=O)NC(=O)[C@@H](NC(=O)[C@H](Cc1ccccc1)NC(=O)CNC(=O)[C@H](CCCCN)NC(=O)CNC(=O)[C@H](C)NC(=O)[C@H](CC(N)=O)NC(=O)[C@H](CCCCN)NC(=O)[C@@H](NC(=O)[C@@H](NC(=O)[C@H](CCC(=O)O)NC(=O)[C@H](Cc1c[nH]c2ccccc12)NC(=O)[C@H](CC(C)C)NC(=O)[C@@H](N)CO)[C@@H](C)O)[C@@H](C)CC)[C@@H](C)CC)[C@@H](C)CC)C(=O)N[C@@H](CCCN=C(N)N)C(=O)O [SLWETIKNAGKGFIQNILDKIR]

Further lines, the compound ahead of its results:

SMILES: CSCC[C@H](NC(=O)[C@H](CO)NC(=O)[C@H](CO)NC(=O)[C@H](CC(C)C)NC(=O)[C@H](C)NC(=O)CNC(=O)[C@H](Cc1ccccc1)NC(=O)[C@H](CC(C)C)NC(=O)[C@H](CC(C)C)NC(=O)[C@@H]1CCCN1C(=O)[C@H](Cc1ccccc1)NC(=O)[C@@H](N)Cc1ccccc1)C(=O)N[C@@H](CCSC)C(=O)N1CCC[C@H]1C(=O)N[C@@H](CCCCN)C(=O)N[C@@H](CC(C)C)C(=O)N[C@@H](Cc1ccccc1)C(N)=O [FFPLLFGALSSMMPKLF]
MIC (Bacillus subtilis): 7.71 µM (≈ 15 µg/mL)
MIC (Escherichia coli ML-35p): 15.4 µM (≈ 30 µg/mL)
MIC [1]: 1.28 µM (≈ 2.5 µg/mL)
MIC [2]: 2.57 µM (≈ 5 µg/mL)
MIC [3]: 1.28 µM (≈ 2.5 µg/mL)
MIC [4]: 1.28 µM (≈ 2.5 µg/mL)
MIC [5]: 1.28 µM (≈ 2.5 µg/mL)

SMILES: CC[C@H](C)[C@H](NC(=O)CNC(=O)[C@@H](NC(=O)[C@H](C)NC(=O)[C@@H](NC(=O)[C@H](CCCCN)NC(=O)[C@@H](NC(=O)[C@@H](NC(=O)[C@@H]1CCCN1C(=O)CNC(=O)[C@H](CC(C)C)NC(=O)[C@@H](N)Cc1ccccc1)[C@@H](C)CC)[C@@H](C)CC)[C@@H](C)CC)[C@@H](C)O)C(=O)N[C@@H](CC(C)C)C(=O)N1CCC[C@H]1C(=O)N[C@H](C(=O)N[C@@H](C)C(=O)N[C@H](C(=O)N[C@H]1CSSC[C@@H](C(=O)O)NC(=O)[C@H](CCCCN)NC(=O)[C@H](CCCCN)NC(=O)[C@H](CC(C)C)NC(=O)[C@H](Cc2ccccc2)NC(=O)[C@H](CCCCN)NC1=O)[C@@H](C)CC)[C@@H](C)O [FLGPIIKIATGILPTAICKFLKKC]
MIC (Bacillus subtilis): 1.81 µM (≈ 4.69 µg/mL)
MIC (Escherichia coli ML-35p): 14.5 µM (≈ 37.5 µg/mL)
MIC [2]: 1.81 µM (≈ 4.69 µg/mL)
MIC [3]: 24.1 µM (≈ 62.5 µg/mL)
MIC [9]: 1.45 µM (≈ 3.75 µg/mL)

SMILES: CC(C)[C@H](NC(=O)[C@H](CCCCN)NC(=O)[C@H](C)NC(=O)[C@@H](NC(=O)[C@@H](NC(=O)[C@H](CCCN=C(N)N)NC(=O)[C@H](CCCN=C(N)N)NC(=O)[C@H](Cc1c[nH]c2ccccc12)NC(=O)[C@H](Cc1c[nH]c2ccccc12)NC(=O)CN)[C@@H](C)O)C(C)C)C(=O)N[C@@H](CCCN=C(N)N)C(=O)N[C@@H](CC(N)=O)C(N)=O [GWWRRTVAKVRN]
MIC [10]: 6.3 µM (≈ 9.63 µg/mL)
MIC [11]: ≥ 50 µM
MIC [4]: 6.3 µM (≈ 9.63 µg/mL)
MIC [12]: 1.6 µM (≈ 2.44 µg/mL)

SMILES: CC(C)C[C@H](NC(=O)[C@H](Cc1cnc[nH]1)NC(=O)[C@H](CCCCN)NC(=O)[C@H](Cc1c[nH]c2ccccc12)NC(=O)[C@H](CCCN=C(N)N)NC(=O)[C@H](CCCCN)NC(=O)[C@H](Cc1ccccc1)NC(=O)[C@H](CC(C)C)NC(=O)[C@@H](N)CCCCN)C(=O)N[C@@H](Cc1ccccc1)C(=O)N[C@@H](CCCN=C(N)N)C(=O)O [KLFKRWKHLFR]
MIC (Streptococcus mutans): ≥ 40.1 µM

SMILES: CC[C@H](C)[C@H](NC(=O)[C@@H]1CCCN1C(=O)[C@H](CCCN=C(N)N)NC(=O)[C@H](CCCN=C(N)N)NC(=O)[C@H](Cc1c[nH]c2ccccc12)NC(=O)[C@@H](N)CCCN=C(N)N)C(=O)N[C@@H](CCCN=C(N)N)C(=O)N[C@@H](CCCN=C(N)N)C(=O)N[C@@H](CCCN=C(N)N)C(=O)N1CCC[C@H]1C(=O)N[C@H](C(=O)N[C@@H](CCCN=C(N)N)C(=O)N1CCC[C@H]1C(=O)N1CCC[C@H]1C(=O)N[C@@H](Cc1c[nH]c2ccccc12)C(=O)N[C@@H](Cc1ccc(O)cc1)C(=O)N[C@@H](CCCN=C(N)N)C(=O)O)[C@@H](C)CC [RWRRPIRRRPIRPPWYR]
MIC (Escherichia coli BW25113): 8 µM (≈ 19.3 µg/mL)

SMILES: NCCCC[C@H](NC(=O)[C@H](Cc1c[nH]c2ccccc12)NC(=O)[C@H](CCCN=C(N)N)NC(=O)[C@H](Cc1c[nH]c2ccccc12)NC(=O)[C@H](CCCN=C(N)N)NC(=O)[C@H](Cc1c[nH]c2ccccc12)NC(=O)[C@@H](N)CCCN=C(N)N)C(=O)O [RWRWRWK]
MIC (Streptococcus mutans): 27.3 µM (≈ 32 µg/mL)
